Blank lines part the entries; values can stand above or below the compound they belong to.
Assays:
[1] = T1 relaxation of 13C1-pyruvate in human full blood; format: physicochemical; conditions: human full blood at 37° C.
Excerpt: The amount of alanine, bicarbonate and lactate is dependent on the metabolic status of the tissue under investigation.
The isotopic enrichment of the hyperpolarised ^13C-pyruvate used in the method of the invention is preferably at least 75%, more preferably at least 80% and especially preferably at least 90%, an isotopic enrichment of over 90% being most preferred. Ideally, the enrichment is 100%. ^13C-pyruvate used in the method of the invention may be isotopically enriched at the C1-position (in the following denoted ^13C1-pyruvate), at the C2-position (in the following denoted ^13C2-pyruvate), at the C3-position (in the following denoted ^13C3-pyruvate), at the C1- and the C2-position (in the following denoted ^13C1,2-pyruvate), at the C1- and the C3-position (in the following denoted ^13C1,3-pyruvate), at the C2- and the C3-position (in the following denoted ^13C2,3-pyruvate) or at the C1-, C2- and C3-position (in the following denoted ^13C1,2,3-pyruvate). Isotopic enrichment at the C1-position is preferred since ^13C1-pyruvate has a higher T1 relaxation in human full blood at 37° C. (about 42 s) than ^13C-pyruvate which is isotopically enriched at other C-positions.

[2] = tested on: EL4 murine lymphoma cells; assay: 13C-MR spectroscopy of hyperpolarised 13C-label flux between pyruvate and lactate in EL4 cell suspensions; format: cell-based; conditions: co-treatment of cells with the cell death inducer
Procedure: EL4 murine lymphoma cells (10^8 cells) were treated with 15 μM etoposide (PCH Pharmachemie BV, Harleem), a compound which is known to induce cell death after 16 h exposure. A separate set of cells was treated for 16 hours with 15 μM etoposide plus 20 mM nicotinamide, a known PARP inhibitor. Cell death (apoptosis and necrosis) was confirmed by acridine orange and propidium iodide staining. The cells were washed 3 times with RPMI 1640 growth medium containing 10% FCS at 37° C. and to 2 ml of the etoposide- and etoposide/nicotinamide treated EL4 cell suspension 2 ml of the imaging medium according to Example 5 were added. The final cell suspension thus contained 30 mM hyperpolarised ^13C1-pyruvate and 37.5 mM lactate.
^13C-signal intensities from ^13C-pyruvate and ^13C-lactate in etoposide-treated EL4 cell suspensions as described in 6.1 were followed over a time period of 240 seconds from the time of addition of the imaging medium. […]
^13C-signal intensities from ^13C-pyruvate and ^13C-lactate in etoposide-treated and etoposide/nicotinamide treated EL4 cell suspensions as described in 6.1 were followed over a time period of 240 seconds from the time of addition of the imaging medium. […] The data were fit to a two-site exchange model based on the modified Bloch equations, and the rate constants for the forward and reverse exchange ^13C-fluxes were determined. […]

[3] = tested on: EL-4 murine lymphoma cells; assay: 31P-NMR measurements on acid-extracts of EL-4 cells induced to undergo cell death; format: cell-based
Excerpt: Loss of NAD(H) can be explained by DNA-damage induced activation of the enzyme poly-ADP-ribose polymerase (PARP), which […] various proteins and uses NAD^+ as a substrate.

[4] = tested on: EL-4 tumour; assay: In vivo 13C-MR spectroscopy of pyruvate-lactate label flux in EL4 tumours after i.v. hyperpolarised 13C1-pyruvate
Procedure: (§1) Lymphoma tumours were produced in mice by subcutaneous implantation of EL4 cells. The mice were treated with an i.p. injection of 67 mg/kg etoposide. Tumour cell death following etoposide treatment was assessed histologically. Non-etoposide treated mice were used as control.
(§2) The time-dependent changes in the tumour signals from lactate and pyruvate were fit to the exchange model to obtain the apparent rate constants, and spin lattice relaxation times (FIG. 3B). The first 10-15 s of data acquisition were lost since this was the time taken to complete the injection and insert the ^13C surface coil probe assembly, containing the animal, into the imaging magnet.
(§3) The data were collected 20 h after treatment of the animals with etoposide. The increased SDs after 40 s reflect the decrease in signal-to-noise on the lactate and pyruvate resonances resulting from the loss of polarisation. […] These extracts were made immediately following completion of the MR experiments.
(§4) In another series of experiments, animals were etoposide-treated 24 h after imaging and then 24 h after etoposide treatment a second set of images were acquired, thus each animal could serve as its own control. However, as with the other experiments, there was little variation within the groups and the group results are presented.

[5] = tested on: LDH; assay: Enzyme activity measurements on protein extracts from freeze-clamped tumours; format: in vivo, mice; conditions: drug-treated tumours, n=3
[6] = tested on: EL-4 tumour; assay: Tumour cell death (histology) and tumour volume (1H spin echo images) in EL4 lymphoma-bearing mice; format: in vivo
[7] = tested on: EL-4 tumour
Procedure: as §1, §2, §3, §4

[8] = tested on: EL-4 tumour; assay: 1H NMR measurements on perchloric acid-extracts of freeze-clamped tumours; format: in vivo, mice; conditions: etoposide-treated tumours, extracts made immediately after MR experiments, n=8
Procedure: The data were collected 20 h after treatment of the animals with etoposide. […] These extracts were made immediately following completion of the MR experiments.

[9] = etoposide-treated EL-4 cells compared to untreated control cells

T1 relaxation [1]: about 42 s
Structure (SMILES): CC(=O)C(=O)O [^13C1-pyruvate]

Structure (SMILES): NC(=O)c1cccnc1 [nicotinamide]
ability to transfer hyperpolarised 13C-label between pyruvate and lactate pools [2]: maintained their ability to transfer the hyperpolarised ^13C-label between the pyruvate and lactate pools
effect of PARP inhibition on loss of NAD(H) and increase in FBP concentration in dying cells ([3]; 20 mM nicotinamide): inhibited the loss of NAD(H) and the increase in FBP concentration

Structure (SMILES): NC(=O)c1cccc(N)c1 [3-aminobenzamide]
ability to transfer hyperpolarised 13C-label between pyruvate and lactate pools [2]: maintained their ability to transfer the hyperpolarised ^13C-label between the pyruvate and lactate pools
effect of PARP inhibition on loss of NAD(H) and increase in FBP concentration in dying cells ([3]; 10 mM 3-aminobenzamide): inhibited the loss of NAD(H) and the increase in FBP concentration

Structure (SMILES): COc1cc([C@@H]2c3cc4c(cc3[C@@H](O[C@@H]3O[C@@H]5CO[C@@H](C)O[C@H]5[C@H](O)[C@H]3O)[C@H]3COC(=O)[C@H]23)OCO4)cc(OC)c1O [etoposide]
rate constant kP^app ([4]; etoposide-treated tumours, 20 h after treatment, n=8): 0.056 ± 0.005 s⁻¹
calculated equilibrium lactate/pyruvate ratio (L∞/P∞) ([4]; etoposide-treated tumours, n=8): 2.7±0.4
decrease in the rate constant kP^app ([4]; versus control tumours, data collected 20 h after treatment): approximately 25%
LDH activity [5]: 100±20 units/g wet wt.
cell death ([6]; 24 h after drug treatment, 67 mg/kg i.p., n=3): 37.0±3.8%
tumour volume ([6]; treated tumours, multi-slice 1H spin echo images, n=8): 1.3±0.2 cm^3
decrease in flux ([7]; following versus before treatment, n=4): 39%
rate constant ([7]; iv, 24 h): 0.040 ± 0.012 s⁻¹
intensity of the resonances from NAD(H) [3, 9]: a decrease in the intensity of the resonances from NAD(H)
resonances from fructose-1,6-bisphosphate (FBP) [3, 9]: an increase in the resonances from the glycolytic intermediate, fructose-1,6-bisphosphate (FBP)
lactate/pyruvate ratio by 1H NMR [8]: 5.1±2.0
